Reference: ChEMBL document CHEMBL1201862, “PubChem BioAssay data set” (2004)
The source made the active and inactive calls.

How the values were obtained:
Procathepsin L = Procathepsin L (Homo sapiens, UniProt P07711); assay: CTSL1 protease inhibition – biochemical, QFRET, 1536-well, counter-screen for M1/M17 aminopeptidase inhibitor project, dose response (AID 2214)
Aspartyl aminopeptidase = Aspartyl aminopeptidase (Plasmodium falciparum 3D7, UniProt Q8I2J3); assay: Counterscreen for inhibitors of M1 and M17 aminopeptidases: QFRET-based biochemical high throughput dose response assay for inhibitors of the Plasmodium falciparum M18 Aspartyl Aminopeptidase (PFM18AAP). [Related PubChem assays: 1619 (Screening assay (M17LAP inhibitors).), 1445 (Screening assay (M1AAP inhibitors).)]
Aminopeptidase N = biological target: T1, Aminopeptidase N (Plasmodium falciparum FcB1/Columbia, UniProt O96935); assay: malaria alanyl aminopeptidase activity blockers – biochemical, fluorogenic H-Leu-NHMec substrate, 1536-well (AID 1445); design: species or system Plasmodium falciparum 3D7, 3D7
T1 sequence (O96935 whole entry): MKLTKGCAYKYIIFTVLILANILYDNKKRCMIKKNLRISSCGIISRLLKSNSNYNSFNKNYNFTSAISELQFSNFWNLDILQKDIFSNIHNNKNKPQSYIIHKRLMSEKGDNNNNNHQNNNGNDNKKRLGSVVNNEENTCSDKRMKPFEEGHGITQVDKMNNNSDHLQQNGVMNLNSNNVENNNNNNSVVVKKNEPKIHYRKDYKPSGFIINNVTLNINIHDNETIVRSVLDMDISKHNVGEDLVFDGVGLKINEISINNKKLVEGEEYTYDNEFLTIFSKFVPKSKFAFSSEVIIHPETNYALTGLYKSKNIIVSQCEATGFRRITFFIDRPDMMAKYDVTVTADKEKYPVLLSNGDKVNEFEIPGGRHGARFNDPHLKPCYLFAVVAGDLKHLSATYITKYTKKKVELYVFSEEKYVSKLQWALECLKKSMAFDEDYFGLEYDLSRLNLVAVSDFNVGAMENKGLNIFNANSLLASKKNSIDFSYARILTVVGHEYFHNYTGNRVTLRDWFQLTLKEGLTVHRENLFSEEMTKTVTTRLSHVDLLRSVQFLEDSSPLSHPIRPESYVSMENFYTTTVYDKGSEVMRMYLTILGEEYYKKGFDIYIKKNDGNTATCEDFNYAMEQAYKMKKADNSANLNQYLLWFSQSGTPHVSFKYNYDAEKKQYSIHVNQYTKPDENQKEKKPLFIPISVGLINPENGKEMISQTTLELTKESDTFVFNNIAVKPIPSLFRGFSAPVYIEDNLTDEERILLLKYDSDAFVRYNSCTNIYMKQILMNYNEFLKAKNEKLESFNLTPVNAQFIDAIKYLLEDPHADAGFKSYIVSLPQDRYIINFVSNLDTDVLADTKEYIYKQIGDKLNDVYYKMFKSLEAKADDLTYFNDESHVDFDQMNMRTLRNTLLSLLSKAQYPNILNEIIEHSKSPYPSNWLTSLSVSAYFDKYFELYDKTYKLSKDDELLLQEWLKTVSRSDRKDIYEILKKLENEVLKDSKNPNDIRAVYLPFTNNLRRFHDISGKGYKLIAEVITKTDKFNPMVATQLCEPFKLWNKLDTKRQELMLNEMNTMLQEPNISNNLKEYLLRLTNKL

Leucine aminopeptidase = biological target: T2, Leucine aminopeptidase (Plasmodium falciparum 3D7, UniProt Q8IL11); assay: P. falciparum M17LAP inhibitors, primary screen, biochemical, fluorogenic H-Leu-NHMec substrate, 1536-well (AID 1619); type: functional
T2 sequence (Q8IL11 whole entry): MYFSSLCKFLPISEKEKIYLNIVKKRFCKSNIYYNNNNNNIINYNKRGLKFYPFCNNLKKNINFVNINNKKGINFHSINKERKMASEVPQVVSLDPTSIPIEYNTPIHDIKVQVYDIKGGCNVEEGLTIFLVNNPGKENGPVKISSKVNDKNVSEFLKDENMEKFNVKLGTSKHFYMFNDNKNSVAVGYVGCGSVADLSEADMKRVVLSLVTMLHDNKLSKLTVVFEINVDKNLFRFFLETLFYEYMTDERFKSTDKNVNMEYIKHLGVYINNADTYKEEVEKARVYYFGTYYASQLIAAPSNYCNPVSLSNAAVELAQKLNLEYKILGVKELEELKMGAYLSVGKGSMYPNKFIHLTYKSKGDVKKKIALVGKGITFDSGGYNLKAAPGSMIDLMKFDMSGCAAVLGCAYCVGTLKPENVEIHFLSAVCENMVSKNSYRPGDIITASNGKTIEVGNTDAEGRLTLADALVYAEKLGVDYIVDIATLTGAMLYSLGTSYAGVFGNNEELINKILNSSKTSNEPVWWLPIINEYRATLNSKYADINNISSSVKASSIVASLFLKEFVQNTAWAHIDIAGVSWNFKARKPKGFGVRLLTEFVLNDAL

[1] = A Cell Based Secondary Assay To Explore Cytotoxicity of Compounds that Sensitize Mycobacterium Tuberculosis to Beta-Lactam Antibiotics.; type: functional
[2] = biological target: Acyl-homoserine lactone acylase PvdQ (Pseudomonas aeruginosa (strain LESB58), UniProt Q9I194); assay: PvdQ acylase enzyme activity blockers – biochemical, fluorescence, plate reader and imaging, cherry-picks, dose response (AID 493231)
[3] = biological target: T3, Eukaryotic translation initiation factor 2-alpha kinase 3 (Homo sapiens, UniProt Q9NZJ5); assay: Dose response cell-based high-throughput screening assay to measure PERK inhibition. [Related pubchem assays: 1416 ]; type: functional
T3 sequence (Q9NZJ5 whole entry): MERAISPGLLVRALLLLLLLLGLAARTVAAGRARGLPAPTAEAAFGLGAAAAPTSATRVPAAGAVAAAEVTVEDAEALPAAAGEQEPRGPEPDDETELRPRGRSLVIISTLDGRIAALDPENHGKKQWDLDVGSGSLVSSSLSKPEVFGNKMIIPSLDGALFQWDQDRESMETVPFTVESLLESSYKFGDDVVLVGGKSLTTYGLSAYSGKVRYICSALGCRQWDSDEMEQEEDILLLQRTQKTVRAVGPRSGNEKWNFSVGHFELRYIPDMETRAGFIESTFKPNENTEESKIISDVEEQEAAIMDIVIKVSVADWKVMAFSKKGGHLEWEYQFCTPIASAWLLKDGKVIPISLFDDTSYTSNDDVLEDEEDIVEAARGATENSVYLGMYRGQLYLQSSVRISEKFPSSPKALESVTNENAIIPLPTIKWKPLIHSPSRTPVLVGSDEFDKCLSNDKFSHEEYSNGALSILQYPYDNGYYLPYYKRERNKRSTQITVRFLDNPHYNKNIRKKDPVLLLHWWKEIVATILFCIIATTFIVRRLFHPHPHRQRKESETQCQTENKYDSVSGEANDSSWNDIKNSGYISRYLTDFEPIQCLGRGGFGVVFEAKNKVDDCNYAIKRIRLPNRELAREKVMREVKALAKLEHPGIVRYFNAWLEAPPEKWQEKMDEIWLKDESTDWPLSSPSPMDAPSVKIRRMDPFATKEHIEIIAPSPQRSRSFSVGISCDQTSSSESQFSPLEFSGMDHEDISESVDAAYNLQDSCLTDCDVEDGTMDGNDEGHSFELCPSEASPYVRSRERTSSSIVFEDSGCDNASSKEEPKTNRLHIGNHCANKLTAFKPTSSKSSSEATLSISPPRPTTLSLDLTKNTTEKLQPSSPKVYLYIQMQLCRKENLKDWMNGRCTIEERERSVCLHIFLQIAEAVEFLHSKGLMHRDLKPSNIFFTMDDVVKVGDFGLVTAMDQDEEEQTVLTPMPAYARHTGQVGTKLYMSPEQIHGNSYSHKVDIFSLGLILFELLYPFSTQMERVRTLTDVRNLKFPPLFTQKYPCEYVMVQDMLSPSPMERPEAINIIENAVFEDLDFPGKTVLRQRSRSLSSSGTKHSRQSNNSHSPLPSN

[4] = biological target: T3, Eukaryotic translation initiation factor 2-alpha kinase 3; assay: Counterscreen assay for PERK inhibitors: Dose response cell-based high throughput screening assay to measure inhibition of PERK at 6 hours. [Related pubchem assays: 1522, 1416 ]; type: functional
[5] = A High Throughput Confirmatory Assay used to Identify Novel Compounds that Inhibit Mycobacterium Tuberculosis in the absence of Glycerol.; type: functional
HeLa = assay: viability loss in HeLa cells – cell-based, 24 h, cherry-picked samples, cytotoxicity control, dose response (AID 504726); type: functional; conditions: Homo sapiens;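 also: potency for cytotoxicity as loss of luminescence signal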
[6] = NIH3T3 cell viability loss – ATP luminescence, mouse fibroblasts, counter-screen, dose response (AID 2010); type: functional, cell-based;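 also: cells exposed to compound for about 90 hours before reading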
[7] = Trypanosoma cruzi growth suppression in host cells – NIH3T3 host cells, beta-gal luminescence, confirmation (AID 2044); type: functional, cell-based;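 also: intracellular parasites grown in NIH/3T3 mouse fibroblasts as host cells; luminescent beta-galactosidase reporter signal from transgenic T. cruzi replicating inside host cells; inhibitors lower the luminescence signal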
cells = type: functional, cell-based
[8] = A549 cell cytotoxicity, dose response, cytotoxicity control, plate reader, cherry-pick, antagonist series (AID 743412); type: functional, cell-based
[9] = alpha-synuclein stem-loop translation blockers – luminescence, H4 neuroglioblastoma cells, dose confirmation, confirmation (AID 2454); type: functional, cell-based;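 also: H4 neuroglioblastoma cells carrying an alpha-synuclein 5'UTR luciferase reporter; potency for inhibition of the luciferase signal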
[10] = biological target: Peroxisome proliferator-activated receptor gamma/Nuclear receptor coactivator 2 (Homo sapiens, UniProt P37231); assay: (§1) TR-FRET dose response biochemical High Throughput Screening assay for agonists of the steroid receptor coactivator 2 (SRC-2) recruitment by the peroxisome proliferator-activated receptor gamma (PPAR gamma): non-selective agonists. [Related pubchem assays: 1297, 1032 ]; type: functional
[11] = Luminescence Cell-Based Dose Response HTS to Identify Inhibitors of 5'UTR Stem-Loop Driven Prion Protein mRNA Translation in H4 Neuroglioblastoma Cells. [Related pubchem assays: 1827 (Project Summary), 1813 (Primary HTS)]; type: functional
[12] = luciferase reporter signal reduction – luminescence, H4-C neuroglioblastoma cells, dose response (AID 2458); type: functional, cell-based;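 also: H4 neuroglioblastoma cells stably carrying a luciferase reporter gene fusion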
[13] = blockers of bursicon-stimulated LGR2 cAMP reporter – cell-based, HEK293, CRE-luciferase reporter, cherry pick, set 2, dose response (AID 743343); type: functional;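 also: transfected cells were stimulated with diluted bursicon conditioned medium after compound addition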
[14] = blockade of melanocortin 4 receptor signaling – cell-based, plate reader, cherry pick, counter-screen for LGR2 antagonist project, dose response (AID 743444); type: functional;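 also: transfected HEK 293 cells stimulated with alpha-MSH peptide; potency of inhibitors of the alpha-MSH evoked signal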
[15] = luciferase reporter signal suppression in cells – H4 neuroglioma cells, luminescence, dose response (AID 1990); type: functional, cell-based
[16] = biological target: Peroxisome proliferator-activated receptor gamma/Nuclear receptor coactivator 3 (Homo sapiens, UniProt P37231); assay: as §1, with “3 (SRC-3)” for “2 (SRC-2)”, “1301 (Confirmation screen.), 1048 (Primary screen.)]” for “1297, 1032 ]”; type: functional
[17] = biological target: Peroxisome proliferator-activated receptor gamma/Nuclear receptor coactivator 1 (Homo sapiens, UniProt P37231); assay: as §1, with “1 (SRC-1)” for “2 (SRC-2)”, “assays (depositor defined):AID1300, AID1808, AID504735, AID631]” for “assays: 1297, 1032 ]”; type: protein assay
[18] = biological target: Melanin-concentrating hormone receptor 1 (Homo sapiens, UniProt Q99705); assay: Late-stage fluorescence-based counterscreen for antagonists of the G-protein coupled receptor 7 (GPR7): cell-based dose response assay to identify antagonists of the melanin-concentrating hormone receptor 1 (MCHR1). [Related pubchem assays (depositor defined):AID1861, AID1880, AID1952, AID2148, AID2251, AID2257, AID485339]; type: functional;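 also: stimulated with 30 nM MCH peptide agonist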
BJ [19] = assay: cells; type: functional, cell-based; conditions: Homo sapiens
BJ [20] = assay: BJ-TERT-LT-ST fibroblast viability loss – cell-based, RAS-independent, luminescence, dose response (AID 1935); type: functional; conditions: Homo sapiens;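 also: BJ fibroblasts immortalized with TERT plus LT and ST oncogenes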
[21] = DRD fibroblast viability loss – cell-based, non-viral oncogenic, luminescence, dose response (AID 1934); type: functional; conditions: Homo sapiens
BJ [22] = assay: growth inhibition of engineered Ras-driven BJ cells – cell-based, alamar blue fluorescence, cherrypicked samples, dose response (AID 2631); type: functional; conditions: Homo sapiens;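 also: confirmatory dose-response assay in RAS-dependent BJ fibroblasts engineered with TERT, LT and ST, with cytotoxicity read by fluorescence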
BJ [23] = assay: BJ-TERT fibroblast viability loss – cell-based, RAS-independent, luminescence, dose response (AID 1933); type: functional; conditions: Homo sapiens
[24] = alpha-synuclein stem-loop luciferase translation blockers – H4 neuroglioma cells, luminescence, confirmation (AID 1988); type: functional, cell-based

Chain of Procathepsin L (P07711 whole entry): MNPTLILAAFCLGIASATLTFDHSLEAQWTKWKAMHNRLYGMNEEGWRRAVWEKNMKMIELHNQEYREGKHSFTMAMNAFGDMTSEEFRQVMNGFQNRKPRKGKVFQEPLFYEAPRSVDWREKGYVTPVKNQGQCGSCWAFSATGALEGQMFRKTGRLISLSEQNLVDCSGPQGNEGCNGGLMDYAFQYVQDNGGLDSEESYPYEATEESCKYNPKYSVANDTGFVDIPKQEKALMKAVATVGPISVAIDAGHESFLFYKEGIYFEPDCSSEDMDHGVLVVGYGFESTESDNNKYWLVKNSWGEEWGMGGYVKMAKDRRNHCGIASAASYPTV
Chain of Aspartyl aminopeptidase (Q8I2J3 whole entry): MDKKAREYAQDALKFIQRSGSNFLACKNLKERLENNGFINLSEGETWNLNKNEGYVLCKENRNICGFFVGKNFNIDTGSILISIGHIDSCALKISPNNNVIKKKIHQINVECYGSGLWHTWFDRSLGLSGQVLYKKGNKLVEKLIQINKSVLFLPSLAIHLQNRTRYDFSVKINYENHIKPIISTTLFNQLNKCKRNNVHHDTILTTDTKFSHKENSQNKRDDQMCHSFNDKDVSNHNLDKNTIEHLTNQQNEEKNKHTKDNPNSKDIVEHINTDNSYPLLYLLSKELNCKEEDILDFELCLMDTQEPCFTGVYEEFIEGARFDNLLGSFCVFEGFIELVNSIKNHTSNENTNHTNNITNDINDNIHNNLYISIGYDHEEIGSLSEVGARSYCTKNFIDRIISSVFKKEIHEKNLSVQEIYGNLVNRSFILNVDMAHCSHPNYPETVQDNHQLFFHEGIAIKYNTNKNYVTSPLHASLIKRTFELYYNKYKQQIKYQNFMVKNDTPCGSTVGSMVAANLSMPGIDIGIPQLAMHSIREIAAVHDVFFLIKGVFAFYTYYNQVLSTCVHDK
Chain of Acyl-homoserine lactone acylase PvdQ (Q9I194 24-193 limits assumed): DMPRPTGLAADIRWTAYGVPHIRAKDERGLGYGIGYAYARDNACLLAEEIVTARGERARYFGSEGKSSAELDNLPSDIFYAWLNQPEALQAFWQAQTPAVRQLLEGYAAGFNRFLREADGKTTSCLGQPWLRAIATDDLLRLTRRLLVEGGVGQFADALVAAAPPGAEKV
Chain of Acyl-homoserine lactone acylase PvdQ (Q9I194 217-762 limits assumed): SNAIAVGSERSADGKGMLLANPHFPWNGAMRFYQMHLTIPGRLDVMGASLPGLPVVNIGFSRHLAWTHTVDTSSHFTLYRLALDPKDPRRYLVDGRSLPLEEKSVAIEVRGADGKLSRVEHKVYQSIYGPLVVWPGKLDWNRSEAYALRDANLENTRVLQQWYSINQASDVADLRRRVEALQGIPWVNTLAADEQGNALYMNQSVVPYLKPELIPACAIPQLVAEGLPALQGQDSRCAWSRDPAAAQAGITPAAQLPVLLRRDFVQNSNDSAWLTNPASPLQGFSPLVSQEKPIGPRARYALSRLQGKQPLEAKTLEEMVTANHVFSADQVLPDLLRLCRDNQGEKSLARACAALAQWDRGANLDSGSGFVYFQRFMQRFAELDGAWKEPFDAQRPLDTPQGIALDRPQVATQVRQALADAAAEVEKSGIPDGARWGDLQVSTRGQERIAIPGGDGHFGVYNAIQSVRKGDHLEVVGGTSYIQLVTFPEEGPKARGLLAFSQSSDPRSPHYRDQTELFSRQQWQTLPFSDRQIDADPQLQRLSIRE
Chain of Melanin-concentrating hormone receptor 1 (Q99705 whole entry): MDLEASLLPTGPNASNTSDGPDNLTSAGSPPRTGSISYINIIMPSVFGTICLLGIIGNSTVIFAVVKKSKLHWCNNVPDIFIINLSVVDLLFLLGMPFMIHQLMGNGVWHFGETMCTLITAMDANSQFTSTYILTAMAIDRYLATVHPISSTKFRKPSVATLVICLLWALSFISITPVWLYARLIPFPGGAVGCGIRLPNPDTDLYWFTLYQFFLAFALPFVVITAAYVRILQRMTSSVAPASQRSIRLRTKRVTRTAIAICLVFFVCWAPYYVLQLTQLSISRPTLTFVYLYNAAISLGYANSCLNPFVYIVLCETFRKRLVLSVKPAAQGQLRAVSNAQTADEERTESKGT
Chain of Peroxisome proliferator-activated receptor gamma/Nuclear receptor coactivator 1 (P37231 whole entry): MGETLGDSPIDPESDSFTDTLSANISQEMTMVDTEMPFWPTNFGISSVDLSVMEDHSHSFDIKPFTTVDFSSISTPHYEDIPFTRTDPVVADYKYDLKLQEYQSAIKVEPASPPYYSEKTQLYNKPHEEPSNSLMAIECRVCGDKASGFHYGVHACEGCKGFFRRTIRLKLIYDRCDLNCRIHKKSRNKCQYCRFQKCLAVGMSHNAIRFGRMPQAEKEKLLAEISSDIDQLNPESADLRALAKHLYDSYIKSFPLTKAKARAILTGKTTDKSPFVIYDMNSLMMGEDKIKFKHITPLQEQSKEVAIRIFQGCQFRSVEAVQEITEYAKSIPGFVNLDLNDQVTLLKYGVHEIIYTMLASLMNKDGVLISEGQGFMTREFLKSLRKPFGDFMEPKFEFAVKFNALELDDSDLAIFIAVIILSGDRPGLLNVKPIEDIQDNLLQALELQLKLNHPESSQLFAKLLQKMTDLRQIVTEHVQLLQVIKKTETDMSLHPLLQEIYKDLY
Chain of Peroxisome proliferator-activated receptor gamma/Nuclear receptor coactivator 1 (Q15788 whole entry, further chain): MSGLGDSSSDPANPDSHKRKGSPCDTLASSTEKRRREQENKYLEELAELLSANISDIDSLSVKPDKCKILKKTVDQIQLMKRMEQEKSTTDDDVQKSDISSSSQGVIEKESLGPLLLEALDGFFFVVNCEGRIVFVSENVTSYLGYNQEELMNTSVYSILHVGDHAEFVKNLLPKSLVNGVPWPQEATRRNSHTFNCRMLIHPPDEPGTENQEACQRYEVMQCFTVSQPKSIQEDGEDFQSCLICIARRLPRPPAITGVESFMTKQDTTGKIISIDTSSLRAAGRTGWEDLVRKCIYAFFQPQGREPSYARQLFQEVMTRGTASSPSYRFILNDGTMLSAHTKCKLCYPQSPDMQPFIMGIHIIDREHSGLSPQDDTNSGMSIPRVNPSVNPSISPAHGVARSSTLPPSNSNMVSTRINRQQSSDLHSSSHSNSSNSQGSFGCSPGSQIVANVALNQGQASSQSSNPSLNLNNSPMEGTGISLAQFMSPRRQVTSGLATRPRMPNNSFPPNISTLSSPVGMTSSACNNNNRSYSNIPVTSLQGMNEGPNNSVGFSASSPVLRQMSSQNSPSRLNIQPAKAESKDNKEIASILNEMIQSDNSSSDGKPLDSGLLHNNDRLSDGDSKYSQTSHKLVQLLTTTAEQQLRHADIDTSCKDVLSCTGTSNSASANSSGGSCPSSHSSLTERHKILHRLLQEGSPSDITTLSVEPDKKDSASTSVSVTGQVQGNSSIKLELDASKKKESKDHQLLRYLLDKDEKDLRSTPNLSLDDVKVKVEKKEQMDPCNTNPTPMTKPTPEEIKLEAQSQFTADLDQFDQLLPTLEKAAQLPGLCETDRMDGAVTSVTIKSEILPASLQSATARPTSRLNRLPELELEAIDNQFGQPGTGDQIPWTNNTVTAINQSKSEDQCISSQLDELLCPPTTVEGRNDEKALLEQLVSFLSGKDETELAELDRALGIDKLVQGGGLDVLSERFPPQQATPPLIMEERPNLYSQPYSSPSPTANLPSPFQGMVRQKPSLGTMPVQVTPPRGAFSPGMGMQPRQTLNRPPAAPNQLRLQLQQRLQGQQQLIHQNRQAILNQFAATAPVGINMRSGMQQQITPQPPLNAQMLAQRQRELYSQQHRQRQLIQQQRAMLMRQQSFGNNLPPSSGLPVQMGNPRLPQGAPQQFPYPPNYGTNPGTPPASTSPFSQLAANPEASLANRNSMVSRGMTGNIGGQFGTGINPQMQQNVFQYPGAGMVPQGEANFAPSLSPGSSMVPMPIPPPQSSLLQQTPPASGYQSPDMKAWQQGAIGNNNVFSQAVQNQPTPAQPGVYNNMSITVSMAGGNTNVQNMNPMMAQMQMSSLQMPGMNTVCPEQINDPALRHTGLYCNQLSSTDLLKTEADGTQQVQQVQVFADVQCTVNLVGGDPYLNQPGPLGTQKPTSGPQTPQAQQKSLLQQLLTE

CCCS(=O)(=O)N1CCC(C(=O)NCc2ccc3c(c2)OCO3)CC1
IC50 (Procathepsin L): > 59.6 µM (not active) | IC50 (Aspartyl aminopeptidase): > 73.5 µM (not active) | IC50 (Aminopeptidase N): 13.1 µM (active)

O=C(CSc1nc2c(c(=O)[nH]1)CN(Cc1ccc(F)cc1)CC2)Nc1ccc(F)cc1
IC50 (Procathepsin L): > 59.6 µM (not active) | IC50 (Leucine aminopeptidase): 7.8 µM (active) | IC50 (Aspartyl aminopeptidase): > 73.5 µM (not active)

O=c1c2cc(Cl)ccc2[nH]c(=S)n1Cc1cccs1
CC50 [1]: > 40 µM (active)

CCOC(=O)c1cnc(-c2ccccc2)nc1N
AC50 [2]: 11.6 µM (active)

O=C1c2ccncc2C(=O)N1c1cccc(Cl)c1
EC50 [3]: > 55.7 µM (not active) | EC50 [4]: > 55.7 µM (not active)

N#CCn1c(C2CCCCC2)nc2ccccc2c1=O
AC50 [2]: 13.1 µM (active)

Cc1nn(-c2ccccc2)c(Cl)c1C(=O)Nc1nnc(C2CCCCC2)s1
IC50 [5]: > 50 µM (active)

O=C(NNC(=O)C1CCCN(S(=O)(=O)c2ccc3ccccc3c2)C1)C1CC1 (stereo unspecified)
EC50 [3]: 23.2 µM (not active) | EC50 [4]: > 55.7 µM (not active)

Cc1ccc(-c2nnn(CC(=O)NC3CCN(Cc4ccccc4)CC3)n2)cc1
AC50 (HeLa): 276 µM (active) | EC50 [6]: > 60 µM (not active) | EC50 [7]: 0.141 µM (active)

O=C1C=C2C=C[C@@H]3CC2(O1)[C@H]1CCCCN31
CC50 [1]: 39.4 µM (active)

O=C(c1ccccc1)N1CCSc2sccc2C1=O
EC50 (cells): 7.25 µM (active) | AC50 [8]: > 52 µM (inactive) | EC50 [9]: 1.08 µM (active) | EC50 [10]: 15.8 µM (not active) | EC50 [11]: < 0.1 µM (active) | EC50 [12]: 0.896 µM (active) | AC50 [13]: 4 µM (active) | AC50 [14]: 3.77 µM (active) | EC50 [15]: 7.87 µM (active) | EC50 [16]: > 79.4 µM (not active) | EC50 [17]: 18.9 µM (inactive)

COc1ccc(Oc2c(Cl)cnn(-c3ccc(C4CC4)cc3)c2=O)cc1
IC50 [18]: 6.8 µM (active)

O=C(N/N=C/c1cccs1)c1cc(-c2ccncc2)nc2ccccc12
EC50 (BJ [19]): 0.712 µM (active) | EC50 (cells): 2.19 µM (active) | EC50 [9]: > 12 µM (inconclusive) | EC50 (BJ [20]): 0.671 µM (active) | EC50 [21]: 0.463 µM (active) | EC50 [11]: 0.294 µM (active) | EC50 (BJ [22]): 0.24 µM (active) | EC50 [12]: > 12 µM (inconclusive) | EC50 [15]: 4.61 µM (active) | EC50 (BJ [23]): 0.602 µM (active) | EC50 [24]: < 0.1 µM (active)
